A short description of series [1]: Half life of compound. Format: physicochemical.
A short description of series [2]: Metabolic stability in dog liver microsomes assessed as intrinsic clearance preincubated for 10 mins followed by NADPH addition and measured after 60 mins by LC-MS/MS analysis. The series is classed as ADME, Canis lupus familiaris, Microsome. The settings on record: time 70 min, read-out: CLH. (In general: Microsomes from liver hold many membrane-bound enzymes, among them those of drug oxidation.)

Series [3] can be described thus: Plasma protein binding in dog plasma assessed as unbound fraction. The series is classed as ADME, cell-free, Canis lupus familiaris.
Series [4] concerns the target T1, Mu-type opioid receptor (Homo sapiens, UniProt P35372). Briefly: Agonist activity at mu opioid receptor (unknown origin) assessed as increase in cAMP level incubated for 40 mins by spectrophotometry. The series is classed as functional.
The nature of series [5]: Metabolic stability in rat liver microsomes assessed as intrinsic clearance preincubated for 10 mins followed by NADPH addition and measured after 60 mins by LC-MS/MS analysis. Particulars: time 70 min, read-out: CLH. The series is classed as ADME, Microsome.
The nature of series [6]: Metabolic stability in human liver microsomes assessed as intrinsic clearance preincubated for 10 mins followed by NADPH addition and measured after 60 mins by LC-MS/MS analysis. Particulars: time 70 min, read-out: CLH. Format: ADME, Microsome.
Series [7] concerns the target T1, Mu-type opioid receptor. Nature of the series: Agonist activity at mu opioid receptor (unknown origin) assessed as maximal cAMP level incubated for 40 mins by spectrophotometry relative to DAMGO. The settings on record: filed as agonist. Format: functional. (Changes in cAMP serve as a functional read-out for many G protein-coupled receptors.)
A short description of series [8]: Apparent permeability across apical to basal membrane in human Caco-2 cells. The series is classed as ADME, cell-based. A general note: Passage across Caco-2 layers is used to estimate intestinal permeability.
Series [9] in a line: Plasma protein binding in human plasma assessed as unbound fraction. The series is classed as ADME, cell-free.
A short description of series [10]: Plasma protein binding in rat plasma assessed as unbound fraction. The series is classed as ADME, cell-free.
The target in series [11] is T1, Mu-type opioid receptor. Briefly: Agonist activity at mu opioid receptor (unknown origin) assessed as beta arrestin-2 recruitment incubated for 3 days by PathHunter assay. The series is classed as functional.
In series [12] the target is T1, Mu-type opioid receptor. Nature of the series: Agonist activity at mu opioid receptor (unknown origin) assessed as maximal beta arrestin-2 recruitment incubated for 3 days by PathHunter assay relative to DAMGO. The settings on record: time 3.0 day. Format: functional.
The target of series [13] is Kappa-type opioid receptor (Homo sapiens, UniProt P41145). Briefly: Agonist activity at human kappa opioid receptor expressed in HEK293 assessed as increase in calcium mobilization incubated for 60 mins by FLIPR assay. The series is classed as functional, cell-based.
The nature of series [14]: Apparent volume of distribution in Sprague-Dawley rat at 2 mg/kg, iv by LC-MS/MS analysis. Format: ADME, organism-based. The settings on record: in vivo, read-out: Vz.
Series [15] concerns the target Delta-type opioid receptor (Homo sapiens, UniProt P41143). Briefly: Agonist activity at human delta opioid receptor expressed in HEK293 assessed as increase in calcium mobilization incubated for 60 mins by FLIPR assay. Format: functional, cell-based.
Another series deals with Cytochrome P450 2C19 (Homo sapiens, UniProt P33261). Nature of the series: Inhibition of CYP2C19 (unknown origin). The series is classed as ADME.
The target of another series is Cytochrome P450 2C9 (Homo sapiens, UniProt P11712). Briefly: Inhibition of CYP2C9 (unknown origin). Format: ADME.
The nature of series [16]: Half life in Sprague-Dawley rat at 2 mg/kg, iv by LC-MS/MS analysis. Particulars: in vivo. Format: ADME, organism-based.
Series [17] in a line: MRT in Sprague-Dawley rat at 2 mg/kg, iv by LC-MS/MS analysis. Format: ADME, organism-based. Particulars: in vivo.
Series [18] can be described thus: Toxicity in Sprague-Dawley rat assessed as effect on blood oxygen levels at 1.56 mg/kg, sc measured after 30 mins by blood gas analyzer. Format: organism-based. Particulars: in vivo, 0.5 h.
For series [19], the system named is Rattus norvegicus. Nature of the series: Antinociceptive activity in Sprague-Dawley rat assessed as increase in paw withdrawal latency at 1 mg/kg, sc measured after 30 mins by Hot-plate test. Format: functional, organism-based.
The nature of series [20]: Drug concentration in Sprague-Dawley rat liver at […],iv measured after 30 mins by LC-MS/MS analysis. The series is classed as ADME, organism-based. The settings on record: in vivo, 0.5 h, dose 0.25 mg/kg.
The subject of series [21] is Rattus norvegicus. Nature of the series: Antinociceptive activity in sc dosed Sprague-Dawley rat assessed as increase in thermal pain threshold measured after 30 mins by Hot-plate test. The series is classed as functional. Particulars: 0.5 h.
A short description of series [22]: Cmax in Sprague-Dawley rat at 2 mg/kg, iv by LC-MS/MS analysis. Format: ADME, organism-based. The arrangement: route intravenous, dose 2 mg/kg. The settings on record: in vivo.
The nature of series [23]: Drug concentration in Sprague-Dawley rat brain at […], iv measured after 5 mins by LC-MS/MS analysis. Format: ADME, organism-based. Particulars: dose 0.25 mg/kg, read-out: Drug uptake.

The record followed here is ChEMBL document CHEMBL5042488, “Synthesis, biological, and structural explorations of a series of μ-opioid receptor (MOR) agonists with high G protein signaling bias” (Eur J Med Chem, 2022).

Calls of active or inactive are those of the source.

Broadly, the half-life is how long it takes for the measured level to halve. Read a high half-life as slow loss. Broadly, the fraction unbound is free concentration divided by total concentration. By EC50 is commonly meant the concentration giving half of the maximal effect. The term Emax denotes the greatest response seen or fitted, relative to the assay's reference. What is called Papp A→B is the apparent permeability from the apical to the basolateral side of a cell layer. Broadly, the IC50 is the point on the concentration scale where inhibition reaches its midpoint. Lower therefore signals greater potency. For orientation: MRT means the average time that molecules of a dose stay in the body. Broadly, the ED50 is the dose that gives a 50% effect, or the effect in half of the subjects. Broadly, the Cmax is the highest concentration seen after dosing.

T1 sequence (P35372 whole entry): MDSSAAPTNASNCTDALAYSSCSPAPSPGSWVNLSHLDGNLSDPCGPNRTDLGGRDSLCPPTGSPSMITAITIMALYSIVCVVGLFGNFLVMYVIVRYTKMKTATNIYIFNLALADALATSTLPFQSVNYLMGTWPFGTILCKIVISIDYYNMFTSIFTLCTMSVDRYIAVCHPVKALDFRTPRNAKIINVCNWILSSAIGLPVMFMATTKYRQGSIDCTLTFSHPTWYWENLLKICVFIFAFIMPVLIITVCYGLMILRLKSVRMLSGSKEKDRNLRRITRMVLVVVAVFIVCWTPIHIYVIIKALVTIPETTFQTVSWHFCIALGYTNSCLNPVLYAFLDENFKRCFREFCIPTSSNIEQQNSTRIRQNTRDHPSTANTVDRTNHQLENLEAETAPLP
Delta-type opioid receptor, sequence (P41143 whole entry): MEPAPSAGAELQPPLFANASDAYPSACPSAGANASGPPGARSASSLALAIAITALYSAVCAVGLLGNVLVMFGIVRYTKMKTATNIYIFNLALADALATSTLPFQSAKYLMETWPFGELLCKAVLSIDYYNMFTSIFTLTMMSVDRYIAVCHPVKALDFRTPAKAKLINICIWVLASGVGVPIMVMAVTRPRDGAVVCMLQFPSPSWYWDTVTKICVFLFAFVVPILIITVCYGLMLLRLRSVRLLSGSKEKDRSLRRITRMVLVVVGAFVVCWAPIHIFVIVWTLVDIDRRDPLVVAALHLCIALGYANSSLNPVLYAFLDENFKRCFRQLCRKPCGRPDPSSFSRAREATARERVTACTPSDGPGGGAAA
Cytochrome P450 2C19, sequence (P33261 whole entry): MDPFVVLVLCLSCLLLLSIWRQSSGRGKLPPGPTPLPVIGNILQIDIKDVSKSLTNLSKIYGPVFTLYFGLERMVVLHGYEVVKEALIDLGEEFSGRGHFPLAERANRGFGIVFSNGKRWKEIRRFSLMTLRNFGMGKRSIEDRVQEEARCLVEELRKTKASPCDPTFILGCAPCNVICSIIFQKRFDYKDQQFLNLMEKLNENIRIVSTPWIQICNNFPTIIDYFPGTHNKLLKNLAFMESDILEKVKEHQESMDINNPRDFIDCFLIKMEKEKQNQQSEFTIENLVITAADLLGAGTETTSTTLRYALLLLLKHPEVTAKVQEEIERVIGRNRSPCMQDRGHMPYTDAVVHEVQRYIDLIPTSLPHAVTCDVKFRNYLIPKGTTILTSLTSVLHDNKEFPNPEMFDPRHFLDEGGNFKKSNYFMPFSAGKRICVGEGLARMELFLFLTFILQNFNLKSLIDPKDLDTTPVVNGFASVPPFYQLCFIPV
Kappa-type opioid receptor, sequence (P41145 whole entry): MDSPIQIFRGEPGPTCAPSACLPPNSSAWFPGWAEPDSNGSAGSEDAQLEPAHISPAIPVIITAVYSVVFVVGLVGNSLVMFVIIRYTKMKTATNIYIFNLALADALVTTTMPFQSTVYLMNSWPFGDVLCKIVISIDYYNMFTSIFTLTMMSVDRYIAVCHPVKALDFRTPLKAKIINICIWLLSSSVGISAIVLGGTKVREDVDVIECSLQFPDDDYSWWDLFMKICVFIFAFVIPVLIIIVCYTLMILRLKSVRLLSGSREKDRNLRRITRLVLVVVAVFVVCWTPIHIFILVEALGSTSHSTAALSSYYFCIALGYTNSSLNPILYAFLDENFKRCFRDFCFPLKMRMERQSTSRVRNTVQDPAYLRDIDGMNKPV
Cytochrome P450 2C9, sequence (P11712 whole entry): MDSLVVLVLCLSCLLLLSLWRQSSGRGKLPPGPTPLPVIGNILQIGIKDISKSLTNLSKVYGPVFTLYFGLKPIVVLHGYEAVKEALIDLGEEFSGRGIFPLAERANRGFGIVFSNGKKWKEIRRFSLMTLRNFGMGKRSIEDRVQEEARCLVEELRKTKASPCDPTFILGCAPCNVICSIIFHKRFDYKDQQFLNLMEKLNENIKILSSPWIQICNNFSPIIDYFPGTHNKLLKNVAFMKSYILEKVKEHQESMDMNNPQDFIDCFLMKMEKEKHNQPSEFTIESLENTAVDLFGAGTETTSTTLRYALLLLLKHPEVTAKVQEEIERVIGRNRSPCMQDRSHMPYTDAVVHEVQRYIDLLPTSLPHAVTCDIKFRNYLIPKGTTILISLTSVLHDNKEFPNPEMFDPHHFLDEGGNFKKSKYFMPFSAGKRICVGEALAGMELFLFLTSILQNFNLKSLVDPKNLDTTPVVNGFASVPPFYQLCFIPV

As for `C[C@@H](NC(=O)[C@@H](N)Cc1ccc(O)cc1)C(=O)NCC(=O)N(C)[C@@H](Cc1ccccc1)C(=O)NCCO` [DAMGO], the half-life in series [1] was determined as 5.95 min.

With `c1ccc([C@]2(CCNCc3scc4c3CCC4)CCO[C@]3(CCOC3)C2)nc1`, the CLint scaled in series [2] amounted to 203 mL/min/kg; in [5] it was 651 mL/min/kg; in [6] it was 49 mL/min/kg. Further, the fraction unbound in series [3] worked out at 0.16; in [9] it was 0.54; in [10], 0.58. Besides, at Mu-type opioid receptor [4], the EC50 is 0.46 nM. Further, on Mu-type opioid receptor [7], the Emax amounted to 96.9%. The Papp A→B in series [8] was found to be 2.4 ×10⁻⁶ cm/s.

Take `FC1(F)CCc2csc(CNCC[C@@]3(c4ccccn4)CCOC4(CCCC4)C3)c2C1`: the EC50 at Mu-type opioid receptor [4] amounted to 1.8 nM; on Mu-type opioid receptor [11], 11 nM. Besides, the CLint scaled in series [6] stood at 1610 mL/min/kg. In addition, the Emax at Mu-type opioid receptor [7] is 92.5%; on Mu-type opioid receptor [12] (filed as agonist) it was 54.3%.

On to `COc1ccsc1CNCC[C@@]1(c2ccccn2)CCOC2(CCCC2)C1` [OLICERIDINE], for which the EC50 in [13] and in series [15] was above 10000 nM each time. For the same molecule, the CLint scaled in [2] is 465 mL/min/kg; in [5] it was 1110 mL/min/kg. Further, the Vd in [14] came to 6.39 L/kg. The values for the fraction unbound in [3], in [9] and in series [10] were 0.023, 0.22 and 0.36, respectively. The IC50 on Cytochrome P450 2C19 and against Cytochrome P450 2C9 was above 50000 nM in each case. The half-life in series [16] was 72.6 min; in series [1], 6.51 min. Further, the results for the Emax at Mu-type opioid receptor [7] and at Mu-type opioid receptor [12] were 92.5% and 4.6%, respectively. Also, the Papp A→B in [8] came to 4.4 ×10⁻⁶ cm/s. The molecule further displayed an MRT in series [17] of 49.2 min. Moreover, the Activity in series [18] came out at 87.62%. The outcome in the series on Rattus norvegicus [19] was Active. For the same molecule, the Drug uptake in series [20] came out at 23.8%. For the same molecule, the ED50 in the series with Rattus norvegicus [21] was determined as 0.85 mg/kg. In series [22], the Cmax is 249 ng/mL. The concentration at 5 min in series [23] turned out to be 64.8 ng/g.

With `c1ccc([C@]2(CCNCc3scc4c3COC4)CCOC3(CCCC3)C2)nc1`, the values for the EC50 at Mu-type opioid receptor [4] and on Mu-type opioid receptor [11] were 2 nM and 27 nM, respectively. Besides, the CLint scaled in [6] stood at 230 mL/min/kg. The results for the Emax on Mu-type opioid receptor [7] and at Mu-type opioid receptor [12] were 90.5% and 4.4%, respectively.

As for `COc1ccsc1CNCC[C@@]1(c2ccccn2)CCO[C@]2(CCOC2)C1`, the EC50 at Mu-type opioid receptor [4] was 20 nM; at Mu-type opioid receptor [11] it was above 30000 nM. For the same molecule, the CLint scaled in series [6] came to 9.3 mL/min/kg. The Emax on Mu-type opioid receptor [7] turned out to be 63.7%; at Mu-type opioid receptor [12], 1.2%.
